Tests used:
Format in all cases: in vivo
[1] = tested on: Barnyardgrass; assay: Pre-emergent herbicidal activity (Table A); conditions: Echinochloa crus-galli, pre-emergence, Bygr, 11.2 kg/ha, 10-14 days, read-out: herbicidal rating (% inhibition)
In short: (§1)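 Percent inhibition per species, scored on a rating scale, after pre-emergent soil incorporation: test compound in acetone or water carrier mixed into cover soil, layered over seeded topsoil or vegetative propagules.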

[2] = tested on: Cocklebur; assay: Pre-emergent herbicidal activity (Table A); conditions: Xanthium strumarium, pre-emergence, Cobu, 11.2 kg/ha, 10-14 days, read-out: herbicidal rating (% inhibition)
In short: as §1

[3] = tested on: Downy Brome; assay: Pre-emergent herbicidal activity (Table A); conditions: Bromus tectorum, pre-emergence, Dobr, 11.2 kg/ha, 10-14 days, read-out: herbicidal rating (% inhibition)
In short: as §1

[4] = tested on: Morningglory; assay: Pre-emergent herbicidal activity (Table A); conditions: Ipomoea, pre-emergence, Mogl, 11.2 kg/ha, 10-14 days, read-out: herbicidal rating (% inhibition)
In short: as §1

[5] = tested on: Velvetleaf; assay: Pre-emergent herbicidal activity (Table A); conditions: Abutilon theophrasti, pre-emergence, Vele, 11.2 kg/ha, 10-14 days, read-out: herbicidal rating (% inhibition)
In short: as §1

[6] = tested on: Yellow Nutsedge; assay: Pre-emergent herbicidal activity (Table A); conditions: Cyperus, pre-emergence, Yens, 11.2 kg/ha, 10-14 days, read-out: herbicidal rating (% inhibition)
In short: as §1

[7] = tested on: Bygr; assay: plant injury after spraying emerged plants (Table D); parameters: scale not given here
Source text: (§2) Topsoil (silt loam) is sieved through a screen having 1.27 cm openings. […] This mixture is steam sterilized and then placed in aluminum pans 6.985 cm deep having ten holes in the bottom each 0.635 cm in diameter. The soil mixture is compacted to a depth of 1.27 cm. from the top of the pan. A predetermined number of seeds of each of several dicotyledonous and monocotyledonous annual plant species and/or vegetative propagules for the perennial plant species are placed on the soil and pressed into the soil surface. The seeds and/or vegetative propagules are covered with 1.27 cm of a mixture of 50% topsoil and 50% of a mixture of Canadian sphagnum peat moss, vermiculite and a wetting agent. The pans are then placed on a capillary mat on a greenhouse bench and subirrigated as needed.
(§3) In the following Table D the legends used to identify the plant species are the same as those used in the preceding Table B.

[8] = tested on: Grft; assay: as above; parameters: scale not given here
Source text: as §2, §3

[9] = tested on: Grso; assay: as above; parameters: scale not given here
Source text: as §2, §3

[10] = tested on: Lacg; assay: as above; parameters: scale not given here
Source text: as §2, §3

[11] = tested on: Mogl; assay: as above; parameters: scale not given here
Source text: as §2, §3

[12] = tested on: Prmi; assay: as above; parameters: scale not given here
Source text: as §2, §3

[13] = tested on: Rice; assay: as above; parameters: scale not given here
Source text: as §2, §3

[14] = tested on: Sobe; assay: as above; parameters: scale not given here
Source text: as §2, §3

[15] = tested on: Whez; assay: as above; parameters: scale not given here
Source text: as §2, §3

[16] = tested on: Dobr; assay: as above
Source text: Topsoil (silt loam) is sieved through a screen having 1.27 cm openings. In some of the tests the soil was mixed with fertilizer (1225 g/cu. m of 12/5/9 containing isobutylidene diurea), while in other tests the fertilizer was omitted. This mixture is steam sterilized and then placed in aluminum pans 6.985 cm deep having ten holes in the bottom each 0.635 cm in diameter. The soil mixture is compacted to a depth of 1.27 cm. from the top of the pan. A predetermined number of seeds of each of several dicotyledonous and monocotyledonous annual plant species and/or vegetative propagules for the perennial plant species are placed on the soil and pressed into the soil surface. The seeds and/or vegetative propagules are covered with 1.27 cm of a mixture of 50% topsoil and 50% of a mixture of Canadian sphagnum peat moss, vermiculite and a wetting agent. The pans are then placed on a capillary mat on a greenhouse bench and subirrigated as needed. After the plants reach the desired stage (9 to 14 days, 1 to 3 true leaf stage), each pan (except the control pans) is removed to a spraying chamber and sprayed by means of an atomizer, operating at a spray pressure of 170.3 kPa ([…]) at the application rates noted in Table D. In the spray solution is an amount of an emulsifying agent mixture (35% butylamine salt of dodecylbenzenesulfonic acid and 65% tall oil condensed with ethylene oxide in the ratio of 11 mols of ethylene oxide/mol of tall oil) to give a spray solution or suspension. The spray solution or suspension contains a sufficient amount of the candidate chemical in order to give application rates of the active ingredient corresponding to those shown in Table D below while applying a total amount of solution or suspension equivalent to 1870 L/Ha (200 gallons/acre). The pans are returned to the greenhouse and watered as before and the injury to the plants as compared to the control pans is observed at approximately 10-14 days (usually 11 days).
as §3

SMILES: COC(=O)c1c(OC)nc(C(F)(F)F)c(C2=NCCS2)c1CC(C)C [Compound 50, 3-pyridinecarboxylic acid, 5-(4,5-dihydro-2-thiazolyl)-2-methoxy-4-(2-methylpropyl)-6-(trifluoromethyl)-, methyl ester]
- inhibition at 11200 g/ha [1]: 75 to 100%
- inhibition at 11200 g/ha [2]: 75 to 100%
- inhibition at 11200 g/ha [3]: 75 to 100%
- inhibition at 11200 g/ha [4]: 75 to 100%
- inhibition at 11200 g/ha [5]: 75 to 100%
- inhibition at 11200 g/ha [6]: 75 to 100%
- plant injury rating, Bygr ([7]; 0.0701 kg/ha): 0
- plant injury rating, Bygr ([7]; 0.2803 kg/ha): 0
- plant injury rating, Bygr ([7]; 1.1210 kg/ha): 1
- plant injury rating, Grft ([8]; 0.0701 kg/ha): 0
- plant injury rating, Grft ([8]; 0.2803 kg/ha): 1
- plant injury rating, Grft ([8]; 1.1210 kg/ha): 1
- plant injury rating, Grft ([8]; 5.3808 kg/ha): 2
- plant injury rating, Grso ([9]; 0.0701 kg/ha): 0
- plant injury rating, Grso ([9]; 0.2803 kg/ha): 0
- plant injury rating, Grso ([9]; 1.1210 kg/ha): 0
- plant injury rating, Lacg ([10]; 0.2803 kg/ha): 3
- plant injury rating, Lacg ([10]; 1.1210 kg/ha): 3
- plant injury rating, Lacg ([10]; 5.3808 kg/ha): 3
- plant injury rating, Mogl ([11]; 0.0701 kg/ha): 1
- plant injury rating, Mogl ([11]; 0.2803 kg/ha): 2
- plant injury rating, Mogl ([11]; 1.1210 kg/ha): 2
- plant injury rating, Mogl ([11]; 5.3808 kg/ha): 3
- plant injury rating, Prmi ([12]; 0.0701 kg/ha): 0
- plant injury rating, Prmi ([12]; 0.2803 kg/ha): 1
- plant injury rating, Rice ([13]; 0.0701 kg/ha): 0
- plant injury rating, Rice ([13]; 0.2803 kg/ha): 0
- plant injury rating, Rice ([13]; 1.1210 kg/ha): 1
- plant injury rating, Rice ([13]; 5.3808 kg/ha): 0
- plant injury rating, Sobe ([14]; 0.0701 kg/ha): 0
- plant injury rating, Sobe ([14]; 0.2803 kg/ha): 1
- plant injury rating, Sobe ([14]; 1.1210 kg/ha): 2
- plant injury rating, Sobe ([14]; 5.3808 kg/ha): 3
- plant injury rating, Whez ([15]; 0.0701 kg/ha): 0
- plant injury rating, Whez ([15]; 0.2803 kg/ha): 0
- plant injury rating, Whez ([15]; 1.1210 kg/ha): 0
- plant injury rating, Whez ([15]; 5.3808 kg/ha): 0
- plant injury rating, Dobr ([16]; 0.0701 kg/ha): 0
- plant injury rating, Dobr ([16]; 1.1210 kg/ha): 0
- plant injury rating, Dobr ([16]; 5.3808 kg/ha): 0

SMILES: COC(=O)c1c(OC)nc(C(F)(F)F)c(N=CSC)c1CC(C)C [Compound 77, 3-pyridinecarboxylic acid, 2-methoxy-4-(2-methylpropyl)-5-[[(methylthio)methylene]amino]-6-(trifluoromethyl)-, methyl ester]
- inhibition at 11200 g/ha [1]: 75 to 100%
- inhibition at 11200 g/ha [2]: 50 to 74%
- inhibition at 11200 g/ha [3]: 75 to 100%
- inhibition at 11200 g/ha [4]: 75 to 100%
- inhibition at 11200 g/ha [5]: 75 to 100%
- inhibition at 11200 g/ha [6]: 75 to 100%
- plant injury rating, Bygr ([7]; 1.1210 kg/ha): 0
- plant injury rating, Bygr ([7]; 5.6050 kg/ha): 2
- plant injury rating, Bygr ([7]; 11.2100 kg/ha): 3
- plant injury rating, Grft ([8]; 1.1210 kg/ha): 0
- plant injury rating, Grft ([8]; 2.8025 kg/ha): 1
- plant injury rating, Grso ([9]; 2.8025 kg/ha): 1
- plant injury rating, Grso ([9]; 11.2100 kg/ha): 1
- plant injury rating, Lacg ([10]; 1.1210 kg/ha): 2
- plant injury rating, Lacg ([10]; 2.8025 kg/ha): 3
- plant injury rating, Lacg ([10]; 5.6050 kg/ha): 3
- plant injury rating, Lacg ([10]; 11.2100 kg/ha): 3
- plant injury rating, Mogl ([11]; 1.1210 kg/ha): 1
- plant injury rating, Mogl ([11]; 2.8025 kg/ha): 2
- plant injury rating, Mogl ([11]; 5.6050 kg/ha): 2
- plant injury rating, Mogl ([11]; 11.2100 kg/ha): 3
- plant injury rating, Prmi ([12]; 1.1210 kg/ha): 0
- plant injury rating, Prmi ([12]; 2.8025 kg/ha): 0
- plant injury rating, Prmi ([12]; 5.6050 kg/ha): 0
- plant injury rating, Rice ([13]; 1.1210 kg/ha): 0
- plant injury rating, Rice ([13]; 2.8025 kg/ha): 0
- plant injury rating, Rice ([13]; 5.6050 kg/ha): 0
- plant injury rating, Rice ([13]; 11.2100 kg/ha): 0
- plant injury rating, Sobe ([14]; 1.1210 kg/ha): 1
- plant injury rating, Sobe ([14]; 2.8025 kg/ha): 1
- plant injury rating, Whez ([15]; 1.1210 kg/ha): 0
- plant injury rating, Whez ([15]; 2.8025 kg/ha): 0
- plant injury rating, Whez ([15]; 5.6050 kg/ha): 0
- plant injury rating, Dobr ([16]; 1.1210 kg/ha): 0
- plant injury rating, Dobr ([16]; 2.8025 kg/ha): 0
- plant injury rating, Dobr ([16]; 11.2100 kg/ha): 0

SMILES: COC(=O)c1c(OC)nc(C(F)(F)F)c(C2SCCS2)c1CC(C)C [Compound 93, 3-pyridinecarboxylic acid, 5-(1,3-dithiolan-2-yl)-2-methoxy-4-(2-methylpropyl)-6-(trifluoromethyl)-, methyl ester]
- inhibition at 11200 g/ha [1]: 75 to 100%
- inhibition at 11200 g/ha [2]: 0 to 24%
- inhibition at 11200 g/ha [3]: 75 to 100%
- inhibition at 11200 g/ha [4]: 75 to 100%
- inhibition at 11200 g/ha [5]: 75 to 100%
- inhibition at 11200 g/ha [6]: 0 to 24%
- plant injury rating, Bygr ([7]; 0.0701 kg/ha): 0
- plant injury rating, Bygr ([7]; 0.2803 kg/ha): 0
- plant injury rating, Bygr ([7]; 1.1210 kg/ha): 0
- plant injury rating, Bygr ([7]; 5.6050 kg/ha): 2
- plant injury rating, Grft ([8]; 0.0701 kg/ha): 0
- plant injury rating, Grft ([8]; 0.2803 kg/ha): 0
- plant injury rating, Grft ([8]; 1.1210 kg/ha): 0
- plant injury rating, Grft ([8]; 5.6050 kg/ha): 1
- plant injury rating, Grso ([9]; 0.0701 kg/ha): 0
- plant injury rating, Grso ([9]; 0.2803 kg/ha): 0
- plant injury rating, Grso ([9]; 1.1210 kg/ha): 0
- plant injury rating, Grso ([9]; 5.6050 kg/ha): 2
- plant injury rating, Lacg ([10]; 0.2803 kg/ha): 2
- plant injury rating, Lacg ([10]; 1.1210 kg/ha): 3
- plant injury rating, Lacg ([10]; 5.6050 kg/ha): 3
- plant injury rating, Mogl ([11]; 0.0701 kg/ha): 0
- plant injury rating, Mogl ([11]; 0.2803 kg/ha): 2
- plant injury rating, Mogl ([11]; 1.1210 kg/ha): 2
- plant injury rating, Mogl ([11]; 5.6050 kg/ha): 3
- plant injury rating, Prmi ([12]; 0.0701 kg/ha): 0
- plant injury rating, Prmi ([12]; 0.2803 kg/ha): 0
- plant injury rating, Prmi ([12]; 1.1210 kg/ha): 0
- plant injury rating, Prmi ([12]; 5.6050 kg/ha): 0
- plant injury rating, Rice ([13]; 0.0701 kg/ha): 0
- plant injury rating, Rice ([13]; 0.2803 kg/ha): 0
- plant injury rating, Rice ([13]; 1.1210 kg/ha): 0
- plant injury rating, Rice ([13]; 5.6050 kg/ha): 0
- plant injury rating, Sobe ([14]; 0.0701 kg/ha): 0
- plant injury rating, Sobe ([14]; 0.2803 kg/ha): 1
- plant injury rating, Sobe ([14]; 1.1210 kg/ha): 2
- plant injury rating, Sobe ([14]; 5.6050 kg/ha): 3
- plant injury rating, Whez ([15]; 0.0701 kg/ha): 0
- plant injury rating, Whez ([15]; 0.2803 kg/ha): 0
- plant injury rating, Whez ([15]; 1.1210 kg/ha): 0
- plant injury rating, Whez ([15]; 5.6050 kg/ha): 0
- plant injury rating, Dobr ([16]; 0.0701 kg/ha): 0
- plant injury rating, Dobr ([16]; 0.2803 kg/ha): 0
- plant injury rating, Dobr ([16]; 1.1210 kg/ha): 0
- plant injury rating, Dobr ([16]; 5.6050 kg/ha): 0

— patent US5391540A, “Substituted pyridine compounds” (Rohm and Haas Company, priority 1993, dated 1995)
